From patent publication US5997501A, “Intradermal drug delivery device” (Elan Corporation, plc, priority 1993, dated 1999)

What was measured:
[1] = assay type: in vivo, New Zealand white rabbits; details: 1000 IU/h for 5 hours from device
Excerpt: (§1) Devices manufactured according to the present invention were used to study the delivery of insulin, heparin and salmon calcitonin to New Zealand white rabbits weighing between 2.5 kg and 3.5 kg. Hair was removed from the dorsal surface of the animal using an electric clipper twenty-fours prior to application of the device. Arterial blood samples were withdrawn for determination of plasma concentration of drug through an indwelling cannula placed in the ear artery.
Delivery of heparin from devices according to the present invention was studied by administering heparin at a rate of 1000 IU/h for 5 hours. Plasma heparing was assayed using an EIA method.

serum calcium = test: Serum calcium concentration in rabbits after intradermal device infusion of salmon calcitonin (Example 2, FIG. 20); assay type: in vivo, rabbit; details: for mean serum calcium concentration, % of control value: 1.0 mg/ml at 0.1 ml/hour for 6 hours, four rabbits
Description: A device according to the present invention containing 0.6 ml of a solution of salmon calcitonin (1.0 mg/ml) was affixed to each of four rabbits. This solution was infused at the rate of 0.1 ml/hour for 6 hours. Serum calcium concentrations were measured via an ear vein at 0, 0.5, 1, 2, 3, 4, 5 and 6 hours following activation of the device, at which point the device was removed.

[2] = Delivery of calcitonin from device compared with conventional subcutaneous injection (plasma calcitonin by EIA, plasma calcium by photometric analysis); assay type: in vivo, New Zealand white rabbits
Excerpt: as §1
To compare delivery of calcitonin using devices according to the present invention to conventional delivery, 40 IU calcitonin was delivered to a rabbit over 2 hours from a device according to the present invention and 20 IU calcitonin was delivered by a conventional single subcutaneous injection. In a further study, calcitonin was delivered at a rate of 25 IU/h and 100 IU/h for a period of 6 hours from devices according to the present invention. Plasma concentrations of calcium were measured using a photometric analysis while calcitonin concentrations were measured by an EIA method.

[3] = Plasma insulin concentration (RIA) in rabbits during device delivery of insulin (Example 3); assay type: in vivo, New Zealand white rabbits; details: 5 IU/h, time=3h
Excerpt: as §1
(§2) Diabetes was induced in test rabbits by administration intravenously of a 150 mg/kg dose of alloxan (monohydrate) to fasted rabbits. The rabbits were provided with a dextrose solution for three days after alloxan administration and after this time normal diet was resumed. Test animals were maintained healthy with a commercial insulin preparation prior to the study. The devices were attached to the rabbits and delivery of insulin at a rate of 5 IU/h was commenced to normoglycaemic animals (for 3 hours) and to diabetic animals (for 3.25 hours). Whole blood glucose concentrations were measured using an Ames glucometer and plasma insulin concentration were measured using a RIA method.

blood glucose [4] = test: Whole blood glucose concentration (Ames glucometer) in rabbits during device delivery of insulin (Example 3); assay type: in vivo, New Zealand white rabbits; details: normal and diabetic animals; 5 IU/h
Excerpt: as §1, §2

blood glucose [5] = test: Blood glucose concentration in rabbits after intradermal device infusion of insulin (Example 1, FIG. 19); assay type: in vivo, rabbit; details: for mean blood glucose concentration: control value 6.25 mmol/l
Description: A device according to the present invention containing 0.6 ml of a solution of insulin (100 I.U./ml) was affixed to each of two rabbits and the devices were switched on. The insulin solution was infused at a rate of 0.1 ml/hour for two hours. […] At one hour, mean blood glucose concentration had fallen from a control value of 6.25 mmol/l to 3.2 mmol/l. This value stayed relatively constant at 1.5 hours following activation (2.65 mmol/l) and at 2 hours (2.5 mmol/l), at which time the devices were removed.

heparin
amounts of heparin delivered [1]: significant anticoagulant amounts

salmon calcitonin
mean calcium concentrations, course (serum calcium; 0 to 6 hours, 0.1 ml/hour): fell steadily throughout the period of application
mean serum calcium concentration, % of control value (serum calcium; 5 hours following activation): 62.5%
mean serum calcium concentration, % of control value (serum calcium; 6 hours following activation): 66.6%
delivery of calcitonin, dose proportionality ([2]; 25 IU/h and 100 IU/h for 6 hours from devices): dose proportional
delivery of calcitonin compared with conventional routes ([2]; 40 IU over 2 hours from device vs 20 IU single subcutaneous injection): comparable to that from conventional routes

insulin: solution of insulin (100 I.U./ml)
plasma insulin concentration ([3]; diabetic (alloxan) rabbits, approximately 10 fmol/ml at time 0): approximately 240 fmol/ml
plasma insulin concentration ([3]; normal (normoglycaemic) rabbits, approximately 25 fmol/ml at time 0): approximately 275 fmol/ml
blood glucose concentration, change (blood glucose [4]): corresponding decrease in blood glucose concentration was observed for both normal and diabetic animals
mean blood glucose concentration (blood glucose [5]; 1 hour following activation, 100 I.U./ml at 0.1 ml/hour, two rabbits): 3.2 mmol/L
mean blood glucose concentration (blood glucose [5]; 1.5 hours following activation, 100 I.U./ml at 0.1 ml/hour): 2.65 mmol/L
mean blood glucose concentration (blood glucose [5]; 2 hours following activation (devices removed), 100 I.U./ml at 0.1 ml/hour): 2.5 mmol/L
mean blood glucose, course after device removal (blood glucose [5]; later than one hour after device removal): continued to rise with time
mean blood glucose concentration (blood glucose [5]; one hour after device removal): 3.7 mmol/L
